≈ marks a conversion by molar mass, not a printed value.
What was measured:
[1] = Permeability across phosphatidyl choline membrane at pH 7.4 after 3 hrs by HPLC with UV detection method; assay type: ADME; settings: not told, read-out: permeability
[2] = target: T1, ATPase family AAA domain-containing protein 2 (Homo sapiens, UniProt Q6PL18)
T1 sequence (Q6PL18 whole entry): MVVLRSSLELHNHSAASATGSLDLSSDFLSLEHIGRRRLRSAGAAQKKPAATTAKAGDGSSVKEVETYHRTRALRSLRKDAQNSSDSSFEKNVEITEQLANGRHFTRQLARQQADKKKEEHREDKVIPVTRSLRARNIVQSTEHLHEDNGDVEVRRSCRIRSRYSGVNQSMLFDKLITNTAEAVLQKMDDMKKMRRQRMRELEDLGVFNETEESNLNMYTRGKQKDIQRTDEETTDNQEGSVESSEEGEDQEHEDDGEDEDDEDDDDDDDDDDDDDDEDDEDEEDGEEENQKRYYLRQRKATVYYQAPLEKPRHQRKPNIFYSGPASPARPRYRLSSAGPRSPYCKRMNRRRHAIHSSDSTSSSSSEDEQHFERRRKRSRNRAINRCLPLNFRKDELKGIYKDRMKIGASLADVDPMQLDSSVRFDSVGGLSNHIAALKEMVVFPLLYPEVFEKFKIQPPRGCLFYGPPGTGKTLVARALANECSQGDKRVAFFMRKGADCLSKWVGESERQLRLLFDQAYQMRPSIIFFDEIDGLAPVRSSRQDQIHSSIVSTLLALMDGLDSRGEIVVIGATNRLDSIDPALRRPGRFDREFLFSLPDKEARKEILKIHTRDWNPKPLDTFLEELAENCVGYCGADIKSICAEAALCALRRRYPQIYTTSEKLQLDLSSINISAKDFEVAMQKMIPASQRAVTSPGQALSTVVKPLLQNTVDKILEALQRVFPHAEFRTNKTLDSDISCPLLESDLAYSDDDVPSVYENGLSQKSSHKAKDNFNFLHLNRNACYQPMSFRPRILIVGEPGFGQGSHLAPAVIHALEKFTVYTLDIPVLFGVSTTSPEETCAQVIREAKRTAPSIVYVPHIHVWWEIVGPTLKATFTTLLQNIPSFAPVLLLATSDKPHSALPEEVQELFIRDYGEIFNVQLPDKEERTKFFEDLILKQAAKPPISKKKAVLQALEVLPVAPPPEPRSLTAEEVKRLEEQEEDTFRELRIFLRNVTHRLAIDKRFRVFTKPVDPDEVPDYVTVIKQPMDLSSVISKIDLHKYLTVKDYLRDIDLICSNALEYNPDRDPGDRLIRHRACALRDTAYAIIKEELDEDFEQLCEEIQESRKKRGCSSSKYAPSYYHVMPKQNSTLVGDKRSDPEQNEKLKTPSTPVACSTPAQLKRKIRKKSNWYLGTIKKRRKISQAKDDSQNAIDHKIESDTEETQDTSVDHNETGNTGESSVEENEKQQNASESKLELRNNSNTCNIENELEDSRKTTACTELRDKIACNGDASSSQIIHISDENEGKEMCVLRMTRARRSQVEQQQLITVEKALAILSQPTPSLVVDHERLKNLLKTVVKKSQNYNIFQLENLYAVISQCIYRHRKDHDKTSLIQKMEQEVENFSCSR
Description: Displacement of histone H4 peptide from FLAG-6His-Tev-ATAD2 (981 to 1121) (unknown origin) expressed in Escherichia coli BL21 (DE3) after 30 mins by TR-FRET analysis relative to control

[3] = target: Bromodomain-containing protein 4 (Homo sapiens, UniProt O60885, Y390A)
[4] = target: T1, ATPase family AAA domain-containing protein 2; remark: listed apart in the source
physchem = settings: phosphate buffered saline, pH 7.4, solubility
Description: Solubility of the compound in phosphate buffered saline at pH 7.4 after 1 hr by CLND method

[5] = Distribution coefficient, log D of the compound at pH 7.4 by chromatographic method; assay type: physicochemical; settings: octanol/water

Papp at 3 h [1]	IC50 [2]	IC50 [3]	IC50 [4]	solubility kinetic at 1 h (physchem)	chromatographic logD [5]	logD [5]	Compound
3.25 ×10⁻⁶ cm/s	0.316 µM	10 µM	0.251 µM	254 µM (≈ 118 µg/mL)			Cc1cncc(-c2cnc(N[C@@H]3CCNC[C@H]3OCC3CCOCC3)c3[nH]c(=O)c(C)cc23)c1
< 0.3 ×10⁻⁶ cm/s	0.126 µM	10 µM	0.1 µM	≥ 315 µM			Cc1cc2c(-c3cccnc3)cnc(N[C@@H]3CCNC[C@H]3OCC3CCS(=O)(=O)CC3)c2[nH]c1=O
		5.01 µM		≥ 531 µM	1.1		Cc1cc2ccnc(N[C@H]3CCNC[C@@H]3OCC3CCS(=O)(=O)CC3)c2[nH]c1=O
< 0.65 ×10⁻⁶ cm/s		12.6 µM					Cc1cc2ccnc(N[C@@H]3CCNC[C@H]3OCC3CCS(=O)(=O)CC3)c2[nH]c1=O
	7.94 µM	10 µM		≥ 275 µM	3.1		Cc1cc2ccnc(N[C@@H]3CCNC[C@H]3OCC3CCCC3)c2[nH]c1=O (racemic)
3.35 ×10⁻⁶ cm/s	0.251 µM	7.94 µM	0.316 µM	≥ 418 µM			COc1cncc(-c2cnc(N[C@@H]3CCNC[C@H]3OCC3CCOCC3)c3[nH]c(=O)c(C)cc23)c1
	5.01 µM	12.6 µM		≥ 328 µM	1		Cc1cc2ccnc(N[C@@H]3CCNC[C@H]3OC[C@@H]3CCS(=O)(=O)C3)c2[nH]c1=O (racemic)
				494 µM (≈ 229 µg/mL)	2.2		Cc1cc2c(-c3cncc(N)c3)cnc(N[C@@H]3CCNC[C@H]3OCC3CCCCC3)c2[nH]c1=O
< 0.3 ×10⁻⁶ cm/s	1 µM	50.1 µM	0.794 µM	≥ 414 µM			Cc1cc2c(-c3cncnc3)cnc(N[C@@H]3CCNC[C@H]3OCC3CCOCC3)c2[nH]c1=O
		25.1 µM		≥ 327 µM	1.5		Cc1cc2ccnc(N[C@@H]3CCNC[C@H]3OCCC3CCOCC3)c2[nH]c1=O (racemic)
	7.94 µM	10 µM		≥ 392 µM	1.2		CC(=O)N1CCC(CO[C@@H]2CNCC[C@H]2Nc2nccc3cc(C)c(=O)[nH]c23)CC1 (racemic)
	2 µM	5.01 µM		≥ 316 µM	4		Cc1cc2ccnc(N[C@@H]3CCNC[C@H]3OCC3CCCCCC3)c2[nH]c1=O (racemic)
	10 µM	6.31 µM		≥ 306 µM	0.9		CO[C@@H]1CNCC[C@H]1Nc1nccc2cc(C)c(=O)[nH]c12
13 ×10⁻⁶ cm/s		3.98 µM					Cc1cc2ccnc(N[C@@H]3CCNC[C@H]3OCC3CCCCC3)c2[nH]c1=O
		5.01 µM		285 µM (≈ 106 µg/mL)	3.3		Cc1cc2ccnc(N[C@@H]3CCNC[C@H]3OCC3CCCCC3)c2[nH]c1=O (racemic)
< 1 ×10⁻⁶ cm/s						1.5	Cc1cc2ccnc(N[C@@H]3CCNC[C@H]3OCC3CCOCC3)c2[nH]c1=O
		6.31 µM		≥ 290 µM	2.3		Cc1cc2ccnc(N[C@@H]3CCNC[C@H]3OCC(C)C)c2[nH]c1=O (racemic)
< 0.3 ×10⁻⁶ cm/s	0.126 µM	7.94 µM	0.1 µM	≥ 269 µM			COc1cncc(-c2cnc(N[C@@H]3CCNC[C@H]3OCC3CCS(=O)(=O)CC3)c3[nH]c(=O)c(C)cc23)c1
< 0.3 ×10⁻⁶ cm/s	0.251 µM	6.31 µM	0.2 µM	≥ 465 µM			Cc1cc2c(-c3cccnc3)cnc(N[C@@H]3CCNC[C@H]3OCC3CCOCC3)c2[nH]c1=O
< 0.3 ×10⁻⁶ cm/s	0.0794 µM	10 µM	0.0501 µM	323 µM (≈ 170 µg/mL)			CCc1cc2c(-c3cncc(C)c3)cnc(N[C@@H]3CCNC[C@H]3OCC3CCS(=O)(=O)CC3)c2[nH]c1=O
	25.1 µM	6.31 µM		≥ 280 µM	1.8		CCCO[C@@H]1CNCC[C@H]1Nc1nccc2cc(C)c(=O)[nH]c12 (racemic)
		10 µM		298 µM (≈ 111 µg/mL)	1.7		Cc1cc2ccnc(N[C@@H]3CCNC[C@H]3OCC3CCOCC3)c2[nH]c1=O (racemic)
< 0.3 ×10⁻⁶ cm/s	0.1 µM	25.1 µM	0.0631 µM	30 µM (≈ 16.2 µg/mL)			Cc1cncc(-c2cnc(N[C@@H]3CCNC[C@H]3OC[C@H]3C[C@@H](C)S(=O)(=O)[C@@H](C)C3)c3[nH]c(=O)c(C)cc23)c1
		12.6 µM		140 µM (≈ 51.9 µg/mL)	3.3		Cc1cc2ccnc(N[C@H]3CCNC[C@@H]3OCC3CCCCC3)c2[nH]c1=O
				196 µM (≈ 90.5 µg/mL)	4.2		Cc1cncc(-c2cnc(N[C@H]3CCNC[C@@H]3OCC3CCCCC3)c3[nH]c(=O)c(C)cc23)c1
		6.31 µM		≥ 309 µM	1		Cc1cc2ccnc(N[C@@H]3CCNC[C@H]3OCC3CCS(=O)(=O)CC3)c2[nH]c1=O (racemic)
	63.1 µM	25.1 µM		207 µM (≈ 65.5 µg/mL)	1.8		Cc1cc2ccnc(N[C@@H]3CCNC[C@H]3OC(C)C)c2[nH]c1=O (racemic)
< 0.3 ×10⁻⁶ cm/s				217 µM (≈ 111 µg/mL)			Cc1cncc(-c2ccc(N[C@@H]3CCNC[C@H]3OCC3CCS(=O)(=O)CC3)c3[nH]c(=O)c(C)cc23)c1 (racemic)
		12.6 µM		≥ 352 µM	1.5		Cc1cc2ccnc(N[C@H]3CCNC[C@@H]3OCC3CCOCC3)c2[nH]c1=O
	5.01 µM	12.6 µM		≥ 323 µM	0.7		Cc1cc2ccnc(N[C@@H]3CCNC[C@H]3OC[C@H]3CC[C@H](O)CC3)c2[nH]c1=O (racemic)

From ChEMBL document CHEMBL3588744, “Structure-Based Optimization of Naphthyridones into Potent ATAD2 Bromodomain Inhibitors” (J Med Chem, 2015)
